{"source": "paper PMC2790922", "about": "(Molecular pharmaceutics, 2009)", "key": {"[1]": {"target": "T1, human recombinant active MMP-2 (Homo sapiens, UniProt P08253)", "T1 sequence (P08253 110-660)": "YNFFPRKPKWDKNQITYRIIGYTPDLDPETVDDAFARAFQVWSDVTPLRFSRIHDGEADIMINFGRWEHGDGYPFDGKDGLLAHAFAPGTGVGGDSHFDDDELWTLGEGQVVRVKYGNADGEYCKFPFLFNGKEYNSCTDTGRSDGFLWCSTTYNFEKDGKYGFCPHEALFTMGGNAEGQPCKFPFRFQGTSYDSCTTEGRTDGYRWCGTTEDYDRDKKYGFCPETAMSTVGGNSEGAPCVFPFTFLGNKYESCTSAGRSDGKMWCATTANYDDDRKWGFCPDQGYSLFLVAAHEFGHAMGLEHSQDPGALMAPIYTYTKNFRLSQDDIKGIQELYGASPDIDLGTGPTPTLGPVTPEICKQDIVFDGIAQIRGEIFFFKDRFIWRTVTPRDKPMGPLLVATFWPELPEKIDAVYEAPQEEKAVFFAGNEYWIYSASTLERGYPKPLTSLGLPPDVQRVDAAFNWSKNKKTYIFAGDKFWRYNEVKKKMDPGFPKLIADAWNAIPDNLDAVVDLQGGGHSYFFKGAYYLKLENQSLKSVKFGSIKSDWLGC", "assay": "Cleavage of peptides by purified active MMP-2", "format": "biochemical", "details": "10 µM GM6001; 9 nM active MMP-2; 37°C, 2 h; FAM fluorescence"}, "[2]": {"test_system": "MMP-2 from HUVECs", "assay": "Peptide cleavage by MMP-2 in PMA-treated HUVECs culture", "format": "cell-based, human", "details": "25 µM GM6001, 30 min pre-treatment; 10 µM MMP-RGD; 24 h; p = 0.041"}}}
{"compound": "CNC(=O)[C@H](Cc1c[nH]c2ccccc12)NC(=O)[C@@H](CC(=O)NO)CC(C)C", "note": "[GM6001]", "values": [{"measurement": "inhibition of cleavage of MMP-RGD and MMP-control by purified MMP-2", "setting": "[1]", "result": "inhibited"}, {"measurement": "inhibition of cleavage of MMP-RGD by PMA-treated HUVECs", "setting": "[2]", "result": "inhibited"}]}
